ChEMBL document CHEMBL3351531, “Scaffold hopping of sampangine: discovery of potent antifungal lead compound against Aspergillus fumigatus and Cryptococcus neoformans” (Bioorg Med Chem Lett, 2014)
Converted amounts (≈) assume the structure as drawn.

Experiments:
Candida parapsilosis = assay: Antifungal activity against Candida parapsilosis after 24 hrs by serial dilution method; assay type: functional; settings: Lodderomyces parapsilosis
Aspergillus fumigatus = assay: Antifungal activity against Aspergillus fumigatus after 7 days by serial dilution method; assay type: functional; settings: 168 h
Cryptococcus neoformans = assay: Antifungal activity against Cryptococcus neoformans after 72 hrs by serial dilution method; assay type: functional
Candida albicans = assay: Antifungal activity against Candida albicans after 24 hrs by serial dilution method; assay type: functional
Nakaseomyces glabratus = assay: Antifungal activity against Candida glabrata after 24 hrs by serial dilution method; assay type: functional
Trichophyton rubrum = assay: Antifungal activity against Trichophyton rubrum by serial dilution method; assay type: functional
Nannizzia gypsea = assay: Antifungal activity against Microsporum gypseum by serial dilution method; assay type: functional
[1] = Kinetic solubility of the compound in PBS buffer at pH 7.4; assay type: physicochemical; settings: read-out: Kinetic_solubility

CC1(C)CC2=C(O1)C(=O)c1nccc3ccnc2c13
MIC80 (Candida parapsilosis): > 64 µg/mL | MIC80 (Aspergillus fumigatus): 1 µg/mL (≈ 3.96 µM) | MIC80 (Cryptococcus neoformans): 2 µg/mL (≈ 7.93 µM) | MIC80 (Candida albicans): > 64 µg/mL | MIC80 (Nakaseomyces glabratus): 0.125 µg/mL (≈ 0.495 µM) | MIC80 (Trichophyton rubrum): 8 µg/mL (≈ 31.7 µM) | MIC80 (Nannizzia gypsea): > 64 µg/mL | solubility kinetic [1]: 27 µg/mL (≈ 107 µM)

O=C1c2ccsc2-c2nccc3ccnc1c23
MIC80 (Candida parapsilosis): 8 µg/mL (≈ 33.6 µM) | MIC80 (Aspergillus fumigatus): 1 µg/mL (≈ 4.2 µM) | MIC80 (Cryptococcus neoformans): 0.25 µg/mL (≈ 1.05 µM) | MIC80 (Candida albicans): 4 µg/mL (≈ 16.8 µM) | MIC80 (Nakaseomyces glabratus): 4 µg/mL (≈ 16.8 µM) | MIC80 (Trichophyton rubrum): 2 µg/mL (≈ 8.39 µM) | MIC80 (Nannizzia gypsea): 2 µg/mL (≈ 8.39 µM) | solubility kinetic [1]: 48 µg/mL (≈ 201 µM)

Cn1cc2c(c1)-c1nccc3ccnc(c13)C2=O
MIC80 (Candida parapsilosis): > 64 µg/mL | MIC80 (Aspergillus fumigatus): > 64 µg/mL | MIC80 (Cryptococcus neoformans): > 64 µg/mL | MIC80 (Candida albicans): > 64 µg/mL | MIC80 (Nakaseomyces glabratus): > 64 µg/mL | MIC80 (Trichophyton rubrum): > 64 µg/mL | MIC80 (Nannizzia gypsea): > 64 µg/mL | solubility kinetic [1]: 17 µg/mL (≈ 72.3 µM)

O=C1c2occc2-c2nccc3ccnc1c23
MIC80 (Candida parapsilosis): > 64 µg/mL | MIC80 (Aspergillus fumigatus): 32 µg/mL (≈ 144 µM) | MIC80 (Cryptococcus neoformans): 16 µg/mL (≈ 72 µM) | MIC80 (Candida albicans): 32 µg/mL (≈ 144 µM) | MIC80 (Nakaseomyces glabratus): 32 µg/mL (≈ 144 µM) | MIC80 (Trichophyton rubrum): 8 µg/mL (≈ 36 µM) | MIC80 (Nannizzia gypsea): 16 µg/mL (≈ 72 µM)

O=C1c2ccoc2-c2nccc3ccnc1c23
MIC80 (Candida parapsilosis): > 64 µg/mL | MIC80 (Aspergillus fumigatus): 32 µg/mL (≈ 144 µM) | MIC80 (Cryptococcus neoformans): 8 µg/mL (≈ 36 µM) | MIC80 (Candida albicans): 32 µg/mL (≈ 144 µM) | MIC80 (Nakaseomyces glabratus): 64 µg/mL (≈ 288 µM) | MIC80 (Trichophyton rubrum): 8 µg/mL (≈ 36 µM) | MIC80 (Nannizzia gypsea): 16 µg/mL (≈ 72 µM)

Cn1ccc2c1C(=O)c1nccc3ccnc-2c13
MIC80 (Candida parapsilosis): > 64 µg/mL | MIC80 (Aspergillus fumigatus): 64 µg/mL (≈ 272 µM) | MIC80 (Cryptococcus neoformans): 8 µg/mL (≈ 34 µM) | MIC80 (Candida albicans): 64 µg/mL (≈ 272 µM) | MIC80 (Nakaseomyces glabratus): 32 µg/mL (≈ 136 µM) | MIC80 (Trichophyton rubrum): 16 µg/mL (≈ 68 µM) | MIC80 (Nannizzia gypsea): > 64 µg/mL | solubility kinetic [1]: 22 µg/mL (≈ 93.5 µM)

O=C1c2cc(Br)sc2-c2nccc3ccnc1c23
MIC80 (Candida parapsilosis): 64 µg/mL (≈ 202 µM) | MIC80 (Aspergillus fumigatus): 4 µg/mL (≈ 12.6 µM) | MIC80 (Cryptococcus neoformans): 4 µg/mL (≈ 12.6 µM) | MIC80 (Candida albicans): 8 µg/mL (≈ 25.2 µM) | MIC80 (Nakaseomyces glabratus): 4 µg/mL (≈ 12.6 µM) | MIC80 (Trichophyton rubrum): 2 µg/mL (≈ 6.31 µM) | MIC80 (Nannizzia gypsea): 1 µg/mL (≈ 3.15 µM)

O=C1c2ccsc2-c2nccc3c(Br)cnc1c23
MIC80 (Candida parapsilosis): 16 µg/mL (≈ 50.4 µM) | MIC80 (Aspergillus fumigatus): 8 µg/mL (≈ 25.2 µM) | MIC80 (Cryptococcus neoformans): 4 µg/mL (≈ 12.6 µM) | MIC80 (Candida albicans): 4 µg/mL (≈ 12.6 µM) | MIC80 (Nakaseomyces glabratus): 4 µg/mL (≈ 12.6 µM) | MIC80 (Trichophyton rubrum): 2 µg/mL (≈ 6.31 µM) | MIC80 (Nannizzia gypsea): 0.5 µg/mL (≈ 1.58 µM)

O=C1c2ccsc2-c2nccc3c(Cl)cnc1c23
MIC80 (Candida parapsilosis): > 64 µg/mL | MIC80 (Aspergillus fumigatus): 2 µg/mL (≈ 7.33 µM) | MIC80 (Cryptococcus neoformans): 0.5 µg/mL (≈ 1.83 µM) | MIC80 (Candida albicans): 32 µg/mL (≈ 117 µM) | MIC80 (Nakaseomyces glabratus): 0.5 µg/mL (≈ 1.83 µM) | MIC80 (Trichophyton rubrum): 2 µg/mL (≈ 7.33 µM) | MIC80 (Nannizzia gypsea): 0.125 µg/mL (≈ 0.458 µM)

O=C1c2cc(Cl)sc2-c2nccc3c(Cl)cnc1c23
MIC80 (Candida parapsilosis): > 64 µg/mL | MIC80 (Aspergillus fumigatus): > 64 µg/mL | MIC80 (Cryptococcus neoformans): > 64 µg/mL | MIC80 (Candida albicans): 32 µg/mL (≈ 104 µM) | MIC80 (Nakaseomyces glabratus): > 64 µg/mL | MIC80 (Trichophyton rubrum): > 64 µg/mL | MIC80 (Nannizzia gypsea): 8 µg/mL (≈ 26 µM)

CN1CCN(c2cnc3c4c(nccc24)-c2sccc2C3=O)CC1
MIC80 (Candida parapsilosis): > 64 µg/mL | MIC80 (Aspergillus fumigatus): > 64 µg/mL | MIC80 (Cryptococcus neoformans): 64 µg/mL (≈ 190 µM) | MIC80 (Candida albicans): > 64 µg/mL | MIC80 (Nakaseomyces glabratus): 64 µg/mL (≈ 190 µM) | MIC80 (Trichophyton rubrum): > 64 µg/mL | MIC80 (Nannizzia gypsea): > 64 µg/mL

COc1cnc2c3c(nccc13)-c1sccc1C2=O
MIC80 (Candida parapsilosis): > 64 µg/mL | MIC80 (Aspergillus fumigatus): > 64 µg/mL | MIC80 (Cryptococcus neoformans): > 64 µg/mL | MIC80 (Candida albicans): > 64 µg/mL | MIC80 (Nakaseomyces glabratus): > 64 µg/mL | MIC80 (Trichophyton rubrum): > 64 µg/mL | MIC80 (Nannizzia gypsea): > 64 µg/mL

O=C1c2ccsc2-c2nc(-c3ccccc3)cc3ccnc1c23
MIC80 (Candida parapsilosis): > 64 µg/mL | MIC80 (Aspergillus fumigatus): > 64 µg/mL | MIC80 (Cryptococcus neoformans): 4 µg/mL (≈ 12.7 µM) | MIC80 (Candida albicans): 32 µg/mL (≈ 102 µM) | MIC80 (Nakaseomyces glabratus): > 64 µg/mL | MIC80 (Trichophyton rubrum): 16 µg/mL (≈ 50.9 µM) | MIC80 (Nannizzia gypsea): > 64 µg/mL

O=C1c2ccsc2-c2nc(-c3cccnc3)cc3ccnc1c23
MIC80 (Candida parapsilosis): > 64 µg/mL | MIC80 (Aspergillus fumigatus): > 64 µg/mL | MIC80 (Cryptococcus neoformans): 32 µg/mL (≈ 101 µM) | MIC80 (Candida albicans): 32 µg/mL (≈ 101 µM) | MIC80 (Nakaseomyces glabratus): > 64 µg/mL | MIC80 (Trichophyton rubrum): > 64 µg/mL | MIC80 (Nannizzia gypsea): 32 µg/mL (≈ 101 µM)

Cc1ccccc1-c1cc2ccnc3c2c(n1)-c1sccc1C3=O
MIC80 (Candida parapsilosis): > 64 µg/mL | MIC80 (Aspergillus fumigatus): > 64 µg/mL | MIC80 (Cryptococcus neoformans): > 64 µg/mL | MIC80 (Candida albicans): 32 µg/mL (≈ 97.4 µM) | MIC80 (Nakaseomyces glabratus): > 64 µg/mL | MIC80 (Trichophyton rubrum): 32 µg/mL (≈ 97.4 µM) | MIC80 (Nannizzia gypsea): > 64 µg/mL

CC(=O)Nc1ccc(-c2cc3ccnc4c3c(n2)-c2sccc2C4=O)cc1
MIC80 (Candida parapsilosis): > 64 µg/mL | MIC80 (Aspergillus fumigatus): > 64 µg/mL | MIC80 (Cryptococcus neoformans): > 64 µg/mL | MIC80 (Candida albicans): 32 µg/mL (≈ 86.2 µM) | MIC80 (Nakaseomyces glabratus): > 64 µg/mL | MIC80 (Trichophyton rubrum): > 64 µg/mL | MIC80 (Nannizzia gypsea): > 64 µg/mL

OC(Cn1cncn1)(Cn1cncn1)c1ccc(F)cc1F [FLUCONAZOLE]
MIC80 (Candida parapsilosis): 1 µg/mL (≈ 3.27 µM) | MIC80 (Aspergillus fumigatus): > 64 µg/mL | MIC80 (Cryptococcus neoformans): 0.25 µg/mL (≈ 0.816 µM) | MIC80 (Candida albicans): 0.5 µg/mL (≈ 1.63 µM) | MIC80 (Nakaseomyces glabratus): 0.25 µg/mL (≈ 0.816 µM) | MIC80 (Trichophyton rubrum): 0.5 µg/mL (≈ 1.63 µM) | MIC80 (Nannizzia gypsea): 16 µg/mL (≈ 52.2 µM)

O=C1c2ccccc2-c2nccc3ccnc1c23 [SAMPANGINE]
MIC80 (Candida parapsilosis): 4 µg/mL (≈ 17.2 µM) | MIC80 (Aspergillus fumigatus): 16 µg/mL (≈ 68.9 µM) | MIC80 (Cryptococcus neoformans): 2 µg/mL (≈ 8.61 µM) | MIC80 (Candida albicans): 0.5 µg/mL (≈ 2.15 µM) | MIC80 (Nakaseomyces glabratus): 0.125 µg/mL (≈ 0.538 µM) | MIC80 (Trichophyton rubrum): 16 µg/mL (≈ 68.9 µM) | MIC80 (Nannizzia gypsea): > 64 µg/mL | solubility kinetic [1]: 12.6 µg/mL (≈ 54.3 µM)
